Here are results for 14 molecules from patent US7498349B2, “Biaryl compounds having anti-infective activity” (Genesoft Pharmaceuticals, Inc., priority 2002, dated 2009).

In brackets after ≈: the same amount, converted by molar mass.

For test [1], the system named is S. aureus ATCC 13709. Put plainly: MIC, NCCLS broth microdilution assay. It is filed as cell-based, Staphylococcus aureus. The note with it: S. aureus ATCC 13709, methicillin sensitive strain (MSSA). A general note: Broth dilution looks for growth in wells or tubes with falling amounts of substance.
Text: (§1) In vitro biological activity data were collected for a variety of microorganisms, including Bacillus cereus (ATCC 11778), Staphylococcus aureus (ATCC 33591; ATCC 27660, a methicillin resistant strain (MRSA); ATCC 13709, a methicillin sensitive strain (MSSA)), Escherichia coli (ATCC 25922), Enterococcus faecalis (ATCC 29212), Streptococcus pneumoniae (ATCC 49619; ATCC 51422, a penicillin resistant strain (PRSP)), Enterococcus faecium (ATCC 51559, a vancomycin resistant strain (VRE)), and Staphylococcus epidermidis (ATCC 12228).
(§2) The minimal inhibition concentration (MIC) of these compounds was determined using the National Committee for Clinical Laboratory Standards (NCCLS) broth microdilution assay in microtiter plates, as set forth in: (1) the guidelines of the National Committee for Clinical Laboratory Standards (NCCLS) Document M7-A4 (NCCLS, 1997); (2) the guidelines of the National Committee for Clinical Laboratory Standards (NCCLS) Document M11-A4 (NCCLS, 1997); and (3) the guidelines and reference method of the National Committee for Clinical Laboratory Standards (NCCLS) Document M27 -T (NCCLS, 1995).
The subject of test [2] is S. pneumoniae ATCC 49619. The experiment in a line: MIC, NCCLS broth microdilution assay. The format is cell-based, Streptococcus pneumoniae. As to conditions: S. pneumoniae ATCC 49619.
Test [3] relates to S. aureus ATCC 33591. Put plainly: MIC, NCCLS broth microdilution assay. The format is cell-based, Staphylococcus aureus. The note with it: S. aureus ATCC 33591.
Text: as §1, §2
Test [4] has as its system E. faecalis ATCC 29212. The experiment in a line: MIC, NCCLS broth microdilution assay. It is filed as cell-based, Enterococcus faecalis. The note with it: E. faecalis ATCC 29212.
Test [5] has as its system E. coli ATCC 25922. Put plainly: MIC, NCCLS broth microdilution assay. The note with it: E. coli ATCC 25922. The format is cell-based, Escherichia coli.
For test [6], the system named is C. albicans ATCC 38247. Put plainly: MIC, antifungal assay. It is filed as cell-based, Candida albicans. As to conditions: C. albicans ATCC 38247.
Test [7] concerns S. aureus ATCC 27660. The experiment in a line: MIC, NCCLS broth microdilution assay. It is filed as cell-based, Staphylococcus aureus. As to conditions: S. aureus ATCC 27660, methicillin resistant strain (MRSA).
Text: as §1, §2
Test [8] relates to B. cereus ATCC 11778. Put plainly: MIC, NCCLS broth microdilution assay. It is filed as cell-based, Bacillus cereus. The note with it: B. cereus ATCC 11778.

Turning to `CN(CCCN)CCCNc1ncccc1C(=O)Nc1ccc(-c2cc3ccccc3o2)nc1` [Compound A-39], the MIC in test [1] (Staphylococcus aureus, ATCC 13709 / MSSA, read-out: Minimum Inhibitory Concentration (MIC)) is 12 to 32 µg/mL (≈ 26.2 to 69.8 µM); in test [2] (Streptococcus pneumoniae, ATCC49619, read-out: Minimum Inhibitory Concentration (MIC)) it was 12 to 32 µg/mL (≈ 26.2 to 69.8 µM); in test [3] (Staphylococcus aureus, ATCC33591, read-out: Minimum Inhibitory Concentration (MIC)), 12 to 32 µg/mL (≈ 26.2 to 69.8 µM); in test [4] (Enterococcus faecalis, ATCC29212, read-out: Minimum Inhibitory Concentration (MIC)) it was 12 to 32 µg/mL (≈ 26.2 to 69.8 µM); in test [5] (Escherichia coli, ATCC25922, read-out: Minimum Inhibitory Concentration (MIC)), above 32 µg/mL; in test [6] (Candida albicans, ATCC38247, read-out: Minimum Inhibitory Concentration (MIC)), above 32 µg/mL. For the same molecule, the MIC in test [7] (Staphylococcus aureus, ATCC 27660 / MRSA, read-out: Minimum Inhibitory Concentration (MIC)) was in the range of 12 to 32 µg/mL (≈ 26.2 to 69.8 µM); in test [8] (Bacillus cereus, ATCC11778, read-out: Minimum Inhibitory Concentration (MIC)) it was 12 to 32 µg/mL (≈ 26.2 to 69.8 µM).
On to `NCCNc1snc(C(=O)Nc2ccc(-c3cc4ccccc4[nH]3)cc2)c1Cl` [Compound A-56], for which the “Minimum Inhibitory Concentration (MIC)” value in test [1] was “++ (4 < MIC < 12)”; in test [2] it was above 32 µg/mL; in test [3], “++ (4 < MIC < 12)”; in test [4], “+ (12 ≦ MIC ≦ 32)”; in test [5], above 32 µg/mL; in test [6] it was “+ (12 ≦ MIC ≦ 32)”. The “Minimum Inhibitory Concentration (MIC)” value was “++ (4 < MIC < 12)” in test [7] and above 32 µg/mL in test [8].
For `NCCNc1ncccc1C(=O)Nc1ccc(-c2cc3ccccc3o2)nc1` [Compound A-40], the “Minimum Inhibitory Concentration (MIC)” value is “++ (4 < MIC < 12)” in test [1]; above 32 µg/mL in test [2]; “+ (12 ≦ MIC ≦ 32)” in test [3]; “++ (4 < MIC < 12)” in test [4]; “+ (12 ≦ MIC ≦ 32)” in test [5]; “+ (12 ≦ MIC ≦ 32)” in test [6]. The “Minimum Inhibitory Concentration (MIC)” value in test [7] is recorded as “++ (4 < MIC < 12)”; in test [8], “+ (12 ≦ MIC ≦ 32)”.
For `Cc1ccc2oc(-c3ccc(NC(=O)c4nsc(NCCCN(C)C)c4Cl)cc3)cc2n1` [Compound A-55], the “Minimum Inhibitory Concentration (MIC)” value in test [1] is “++ (4 < MIC < 12)”; in test [2] it was “+ (12 ≦ MIC ≦ 32)”; in test [3] it was “+ (12 ≦ MIC ≦ 32)”; in test [4] it was “+ (12 ≦ MIC ≦ 32)”; in test [5] it was above 32 µg/mL; in test [6] it was “++ (4 < MIC < 12)”. In addition, the “Minimum Inhibitory Concentration (MIC)” value in test [7] is “++ (4 < MIC < 12)”; in test [8] it was “+ (12 ≦ MIC ≦ 32)”.
Regarding `O=C(Nc1ccc(-c2cc3ccccc3s2)nc1)c1nsc(NCCN2CCCCC2)c1Cl` [Compound A-69], the “Minimum Inhibitory Concentration (MIC)” value in test [1], in test [2], in test [3], in test [4], in test [5] and in test [6] was above 32 µg/mL each time. Also, the “Minimum Inhibitory Concentration (MIC)” value in test [7] and in test [8] was above 32 µg/mL in each case.
As for `O=C(Nc1ccc(-c2cc3ccccc3[nH]2)cc1)c1cccnc1NCCN1CCOCC1` [Compound A-66], the “Minimum Inhibitory Concentration (MIC)” value in test [1], in test [2], in test [3], in test [4], in test [5] and in test [6] was above 32 µg/mL each time. Also, the “Minimum Inhibitory Concentration (MIC)” value in test [7] and in test [8] was above 32 µg/mL each time.
For the molecule `O=C(Nc1ccc(-c2cc3ccccc3s2)nc1)c1nsc(NCCN2CCNCC2)c1Cl` [Compound A-70], the “Minimum Inhibitory Concentration (MIC)” value in test [1] was “+++ (MIC ≦ 4)”; in test [2] it was above 32 µg/mL; in test [3] it was “+++ (MIC ≦ 4)”; in test [4] it was “+++ (MIC ≦ 4)”; in test [5], above 32 µg/mL; in test [6], “+++ (MIC ≦ 4)”. For the same molecule, the results for the “Minimum Inhibitory Concentration (MIC)” value in test [7] and in test [8] were “+++ (MIC ≦ 4)” and above 32 µg/mL, respectively.
In the case of `O=C(Nc1ccc(-c2cc3ccccc3s2)nc1)c1cccnc1NCCN1CCCCC1` [Compound A-72], the “Minimum Inhibitory Concentration (MIC)” value in test [1], in test [2], in test [3], in test [4], in test [5] and in test [6] was above 32 µg/mL in each case. Besides, the “Minimum Inhibitory Concentration (MIC)” value in test [7] and in test [8] was above 32 µg/mL throughout.
Regarding `O=C(Nc1ccc(-c2cc3ccccc3o2)cc1)c1ccc(Cl)cc1NCCN1CCCC1` [Compound A-25], the “Minimum Inhibitory Concentration (MIC)” value in test [1] is “+ (12 ≦ MIC ≦ 32)”; in test [2], above 32 µg/mL; in test [3] it was “+ (12 ≦ MIC ≦ 32)”; in test [4] it was “+ (12 ≦ MIC ≦ 32)”; in test [5], above 32 µg/mL; in test [6] it was above 32 µg/mL. The “Minimum Inhibitory Concentration (MIC)” value was “+ (12 ≦ MIC ≦ 32)” in test [7] and above 32 µg/mL in test [8].
Turning to `CN(CCCN)CCCNc1cc(Cl)ccc1C(=O)Nc1ccc(-c2cc3ccccc3o2)nc1` [Compound A-41], the “Minimum Inhibitory Concentration (MIC)” value in test [1] is on record as “+++ (MIC ≦ 4)”; in test [2], “+ (12 ≦ MIC ≦ 32)”; in test [3], “+++ (MIC ≦ 4)”; in test [4], “+++ (MIC ≦ 4)”; in test [5] it was “++ (4 < MIC < 12)”; in test [6], “++ (4 < MIC < 12)”. The “Minimum Inhibitory Concentration (MIC)” value is given as “+++ (MIC ≦ 4)” in test [7] and “++ (4 < MIC < 12)” in test [8].
As for `CN(C)CCCNc1cc(Cl)ccc1C(=O)Nc1ccc(-c2cc3ccccc3o2)nc1` [Compound A-44], the “Minimum Inhibitory Concentration (MIC)” value is “++ (4 < MIC < 12)” in test [1]; “+ (12 ≦ MIC ≦ 32)” in test [2]; “++ (4 < MIC < 12)” in test [3]; “++ (4 < MIC < 12)” in test [4]; above 32 µg/mL in test [5]; “++ (4 < MIC < 12)” in test [6]. Also, the “Minimum Inhibitory Concentration (MIC)” value in test [7] and in test [8] was “++ (4 < MIC < 12)” throughout.
In the case of `CN(C)CCCNc1snc(C(=O)Nc2ccc(-c3cc4ccccc4[nH]3)cc2)c1Cl` [Compound A-57], the “Minimum Inhibitory Concentration (MIC)” value in test [1] is “++ (4 < MIC < 12)”; in test [2], above 32 µg/mL; in test [3], “+ (12 ≦ MIC ≦ 32)”; in test [4], “++ (4 < MIC < 12)”; in test [5] it was above 32 µg/mL; in test [6] it was “+++ (MIC ≦ 4)”. For the same molecule, the “Minimum Inhibitory Concentration (MIC)” value was “++ (4 < MIC < 12)” in test [7] and “+ (12 ≦ MIC ≦ 32)” in test [8].
Consider `O=C(Nc1ccc(-c2cc3ccccc3s2)cc1)c1nsc(NCCN2CCCC2)c1Cl` [Compound A-46], for which the “Minimum Inhibitory Concentration (MIC)” value in test [1] was “+ (12 ≦ MIC ≦ 32)”; in test [2], above 32 µg/mL; in test [3] it was above 32 µg/mL; in test [4], above 32 µg/mL; in test [5], above 32 µg/mL; in test [6], above 32 µg/mL. Further, the “Minimum Inhibitory Concentration (MIC)” value was “+ (12 ≦ MIC ≦ 32)” in test [7] and above 32 µg/mL in test [8].
Turning to `CN(C)CCCNc1snc(C(=O)Nc2ccc(-c3cc4ccccc4o3)nc2)c1Cl` [Compound A-36], the “Minimum Inhibitory Concentration (MIC)” value is “+++ (MIC ≦ 4)” in test [1]; “+ (12 ≦ MIC ≦ 32)” in test [2]; “++ (4 < MIC < 12)” in test [3]; “++ (4 < MIC < 12)” in test [4]; above 32 µg/mL in test [5]; “++ (4 < MIC < 12)” in test [6]. For the same molecule, the “Minimum Inhibitory Concentration (MIC)” value is recorded as “+ (12 ≦ MIC ≦ 32)” in test [7] and “++ (4 < MIC < 12)” in test [8].
